Data published in patent US9465025B2, “Stable neural stem cell lines” (Neuralstem, Inc., priority 1996, dated 2016).

Key:
[1] = target: T1, endogenous full-length progesterone receptor (Homo sapiens, UniProt P06401); settings: Wang et al. 1994; cited from earlier work
T1 sequence (P06401 1-933): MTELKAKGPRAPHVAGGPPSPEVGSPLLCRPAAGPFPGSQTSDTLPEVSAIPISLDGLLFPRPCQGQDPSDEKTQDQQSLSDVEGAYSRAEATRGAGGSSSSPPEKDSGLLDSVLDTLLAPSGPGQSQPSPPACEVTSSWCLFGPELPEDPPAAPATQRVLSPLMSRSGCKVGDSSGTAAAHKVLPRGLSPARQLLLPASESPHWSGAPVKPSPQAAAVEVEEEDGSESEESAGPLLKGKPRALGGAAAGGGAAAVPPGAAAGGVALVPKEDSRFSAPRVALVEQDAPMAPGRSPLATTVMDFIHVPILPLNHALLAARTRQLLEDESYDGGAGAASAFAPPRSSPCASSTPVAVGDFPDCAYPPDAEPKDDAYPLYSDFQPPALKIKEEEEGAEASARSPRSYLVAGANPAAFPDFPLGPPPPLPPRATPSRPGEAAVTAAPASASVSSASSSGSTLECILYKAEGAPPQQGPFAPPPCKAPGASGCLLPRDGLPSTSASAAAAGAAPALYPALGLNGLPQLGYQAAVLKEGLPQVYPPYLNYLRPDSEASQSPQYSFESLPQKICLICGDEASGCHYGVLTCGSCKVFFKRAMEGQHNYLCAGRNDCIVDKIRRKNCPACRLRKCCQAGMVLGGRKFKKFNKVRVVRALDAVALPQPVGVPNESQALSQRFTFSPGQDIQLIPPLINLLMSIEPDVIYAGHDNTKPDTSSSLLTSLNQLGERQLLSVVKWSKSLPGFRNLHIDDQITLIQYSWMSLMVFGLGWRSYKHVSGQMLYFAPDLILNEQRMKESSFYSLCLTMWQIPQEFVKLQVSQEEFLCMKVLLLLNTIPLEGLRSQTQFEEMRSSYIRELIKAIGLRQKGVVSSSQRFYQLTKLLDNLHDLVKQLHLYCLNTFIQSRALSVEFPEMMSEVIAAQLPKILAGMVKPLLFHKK

[2] = tested on: MycER-expressing CNS stem cells; assay: Growth of MycER-expressing human CNS stem cells in different mitogens; assay type: cell-based
Experimental: The same human CNS stem cell preparation was also subjected to MycER-retrovirus infection and grown in bFGF alone or in bFGF and EGF. […] As with the unmodified parent cells, the MycER cells also retained a 60 hour doubling time in bFGF alone. […] In the absence of MycER expression, the same three conditions yielded a similar pattern of growth, but with less stability.

rat CNS stem cells = assay: Doubling time of rat CNS stem cells in N2 medium with bFGF; assay type: cell-based; settings: bFGF as sole mitogen
Experimental: (§1) The doubling time for human CNS stem cells in N2 medium with bFGF as the sole mitogen is approximately 60 hours which is markedly slower than 24 hours for rat CNS stem cells under the identical culture conditions. This may be due to a species difference in certain cell-autonomous properties of the cells such as a difference in DNA replication rate or in other mitotic phases, G1 or G2, of the cell cycle. We investigated other factors to accelerate the mitotic rate of human CNS stem cells.

human CNS stem cells = assay: Mitotic rate (24-hour BrdU incorporation) and doubling time of human CNS stem cells with growth factors; assay type: cell-based; settings: N2 medium, factor supplied daily
Experimental: as §1
Many purified recombinant human growth factors were tested for the ability to enhance the mitogenic activity of bFGF. The mitotic rate of human CNS stem cells was assessed by measuring the proportion of the cells which have incorporated the mitotic label, bromodeoxyuridine (BrdU), during a 24-hour period. Each growth factor was supplied daily to the culture in addition to bFGF. Only the combination of bFGF+EGF and bFGF+TGFα (transforming growth factor-alpha) accelerated beyond the bFGF-induced mitotic rate of the human CNS stem cells. In both conditions, the doubling time of the cells […] 1.5 times to 40 hours over bFGF alone. Combination of bFGF and fetal bovine serum at 1% or at 10% also accelerated the BrdU-incorporation rate of bFGF-induced mitotic rate of CNS stem cells to a similar rate. • 2. Resistance of CNS Stem Cells Against Spontaneous Differentiation

Row | Molecule | activation of full-length receptor [1] | doubling time [2] [h] | doubling time (rat CNS stem cells) [h] | doubling time (human CNS stem cells)
1 | CC#C[C@]1(O)CC[C@H]2[C@@H]3CCC4=CC(=O)CCC4=C3[C@@H](c3ccc(N(C)C)cc3)C[C@@]21C [RU38486] | does not activate | – | – | –
2 | bFGF: basic fibroblast growth factor, mitogen for CNS stem cells | – | 60 | 24 | approximately 60 hours
